# Entries after “also recorded” stand apart in the source; their conditions may differ. Where no end group is shown, it is not given here. [ ]: non-standard residue; d: D form. Aib = CC(C)(N)C(=O)O
# How the values were obtained:
# Assay type in all cases: in vivo, human
# [1] = Phase I single-ascending dose study, safety, tolerability, PK and PD, single SC injection; conditions: for mean daily fasting glucose level by day 7: healthy subjects (placebo 78.7)
# Experimental: A Phase I, randomized, placebo-controlled, sequential, single-ascending, two period, study was performed in healthy male subjects to evaluate the safety, tolerability, pharmacokinetic (PK), and pharmacodynamic (PD) properties of extended half-life GLP-1/GIP coagonist peptide. Healthy adult male subjects (about 18 to 55 years of age) who were in general good health based on medical history, physical examination, ECG, and routine laboratory tests (e.g., blood, chemistry, hematology, urinalysis, and drug screen) with a body mass index between 20 kg/m^2 and 30 kg/m^2 were selected for the study. The extended half-life GLP-1/GIP coagonist peptide tested in all of the Examples was SEQ ID NO: 153.
# The subjects were randomized into cohorts.
# Following an overnight fast of at least 10 hours, the subjects received a single dose of the study drug or placebo as a subcutaneous (SC) injection in the abdomen. Blood samples were collected for fasting insulin, glucose, and glucagon levels pre-dose (i.e., within 30 minutes prior to dosing) on Day 1 and on Days 2, 3, 4, 5, 6, and 7. Plasma samples for pharmacokinetic analysis were collected pre-dose and at 0.5, 1, 2, 4, 8, and 12 hours post-dose on Day 1 and on Days 2, 3, 4, 5, 6, 7, 14, 28, and 35. The subjects were monitored through Day 35 for adverse events, weight, and vital signs.
# [2] = test system: beta cell response to a glucose load; experiment: Phase I two-part study, beta cell response to graded glucose infusion; conditions: for LS mean change in insulin secretion rate at each glucose infusion rate, placebo vs treatment: 72 hours after dosing, p<0.001
# Experimental: (§1) A Phase I, randomized, placebo-controlled, positive-controlled two-part study was performed in healthy male and female subjects to evaluate the effect of a range of doses on beta cell response to a glucose load and to assess the effect of these doses on gastric emptying. Beta cell function was assessed by calculation of prehepatic insulin secretion in response to a graded glucose infusion. Gastric emptying was assessed by measurement of plasma appearance of ingested acetaminophen.
# (§2) During Part 2, subjects in Cohort 2 received placebo on Day 1, followed by 8 mg of the extended half-life GLP-1/GIP coagonist peptide on Day 2. Subjects in Cohort 3 received placebo on Day 1, followed by 4 mg of the extended half-life GLP-1/GIP coagonist peptide on Day 2. Subjects in Cohort 4 received placebo on Day 1, followed by 16 mg of the extended half-life GLP-1/GIP coagonist peptide on Day 2.
# (§3) Blood samples for glucose, C-peptide, insulin, and safety laboratory tests were drawn at −120, −15, and −10 minutes. At −10 minutes, subjects ingested 1000 mg acetaminophen elixir with 240 mL water. At 0 minutes, a step-wise infusion of glucose (20% dextrose) was started, a second SC injection of placebo was administered, and blood samples for glucose, C-peptide, insulin, and safety laboratory tests were drawn. Glucose was infused for a total of 2.5 hours at a rate of 2, 4, 6, 8, and 12 mg/kg/min. Each level of glucose infusion was maintained for 30 minutes. Blood samples for glucose, C-peptide, and insulin were drawn again at 10, 20, and 30 minutes during each 30-minute infusion period. Blood samples for plasma acetaminophen concentration were drawn at −10, 30, 60, 90, 120, 150, 180, 210, 240, 300, and 480 minutes.
# (§4) Blood samples for glucose, C-peptide, and insulin were drawn at −120, −15, and −10 minutes. At −10 minutes, subjects ingested 1000 mg acetaminophen elixir with 240 mL water. […] Glucose was infused for a total of 2.5 hours at a rate of 2, 4, 6, 8, and 12 mg/kg/min. Each level of glucose infusion was maintained for 30 minutes. […] Blood samples for glucose, C-peptide, and insulin were drawn at 10, 20, and 30 minutes during each 30-minute infusion period. Blood samples for plasma acetaminophen concentration were drawn at −10, 30, 60, 90, 120, 150, 180, 210, 240, 300, and 480 minutes.
# (§5) Blood samples for glucose, C-peptide, insulin, and safety laboratory tests were drawn at −15 and −10 minutes. At −10 minutes, subjects ingested 1000 mg acetaminophen elixir with 240 mL water. At 0 minutes, a step-wise infusion of glucose (20% dextrose) was started and blood samples for glucose, C-peptide, and insulin were drawn. Glucose was infused for a total of 2.5 hours at a rate of 2, 4, 6, 8, and 12 mg/kg/min. Each level of glucose infusion was maintained for 30 minutes. Blood samples for glucose, C-peptide, and insulin were drawn again at 10, 20, and 30 minutes during each 30-minute infusion period. Blood samples for plasma acetaminophen concentration were drawn at −10, 30, 60, 90, 120, 150, 180, 210, 240, 300, and 480 minutes.
# On Day 2, following an overnight fast of 10 hours, a blood sample for glucose, C-peptide, and insulin was drawn at −10 minutes. Subjects received an injection of extended half-life GLP-1/GIP coagonist peptide at 0 minutes. Subjects in Cohort 2 received 8 mg of extended half-life GLP-1/GIP coagonist peptide, subjects in Cohort 3 received 4 mg of extended half-life GLP-1/GIP coagonist peptide, and subjects in Cohort 4 received 16 mg of extended half-life GLP-1/GIP coagonist peptide. At 0 minutes, a blood sample for extended half-life GLP-1/GIP coagonist peptide concentration, C-peptide, insulin, glucose, and safety laboratory tests was drawn.
# At −10 minutes, subjects ingested 1000 mg acetaminophen elixir with 240 mL water. […] Glucose was infused for a total of 2.5 hours at a rate of 2, 4, 6, 8, and 12 mg/kg/min. Each level of glucose infusion was maintained for 30 minutes.
# gastric emptying = experiment: Phase I two-part study, gastric emptying by plasma appearance of ingested acetaminophen
# Experimental: as §1, §2, §3, §4, §5
# At −10 minutes, subjects ingested 1000 mg acetaminophen elixir with 240 mL water. […] Glucose was infused for a total of 2.5 hours at a rate of 2, 4, 6, 8, and 12 mg/kg/min. Each level of glucose infusion was maintained for 30 minutes. […] Blood samples for plasma acetaminophen concentration were drawn at −10, 30, 60, 90, 120, 150, 180, 210, 240, 300, and 480 minutes.
# [3] = 4 mg, 8 mg, 16 mg, graded glucose infusion
# [4] = 4 mg, 8 mg, 16 mg, 72 hours after dosing
substance,measurement,setting,value
extended half-life GLP-1/GIP coagonist peptide: The extended half-life GLP-1/GIP coagonist peptide tested in all of the Examples was SEQ ID NO: 153 (Y[Aib]EGTFTSDYSIYLDKQAA[Aib]EFVC(PEG 40 kDa)WLLAGGPSSGAPPPSK-NH2),AUC (AUC0-144),"[1]; 0.1 mg single SC dose, plasma","12,349 pM·hr"
same,Cmax,"[1]; 0.1 mg single SC dose, plasma",0.183 nM
same,AUC (AUC0-144),"[1]; 8 mg single SC dose, plasma","1,382,376 pM·hr"
same,Cmax,"[1]; 8 mg single SC dose, plasma",13 nM
same,mean daily fasting glucose level by day 7,[1]; 16 mg dose,76.5 mg/dL
same,time to maximum observed plasma concentration (Tmax),[1]; 16 mg single SC dose,112.5 h
same,mean daily fasting glucose level by day 7,[1]; 24 mg dose,72.7 mg/dL
same,time to maximum observed plasma concentration (Tmax),[1]; 24 mg single SC dose,56.0 h
same,mean daily fasting glucose level by day 7,[1]; 32 mg dose,71.7 mg/dL
same,time to maximum observed plasma concentration (Tmax),[1]; 32 mg single SC dose,80.0 h
same,AUC (AUC0-last),"[1]; 32 mg single SC dose, plasma","12,582 nM·hr"
same,Cmax,"[1]; 32 mg single SC dose, plasma",54.8 nM
same,absolute bioavailability,[1]; SC injection,100%
same,dose proportionality of AUC and Cmax,[1]; doses ranging from 0.1 mg to 32 mg,dose proportional
same,"dose-related trends for fasting insulin, glucose and glucagon levels",[1]; healthy subjects,No dose-related trends
same,apparent t1/2,"[1]; plasma, single SC dose, healthy male subjects",approximately 5 days
same,safety and tolerability,"[1]; single SC doses 0.1 mg to 32 mg, healthy male subjects","generally safe and well tolerated; also recorded: well tolerated and not associated with adverse events, clinically important laboratory findings, or ECG findings"
same,"LS mean change in C peptide, comparison between dose groups","[2]; 4 mg vs 8 mg groups, p=0.0055",0.01 ng/mL per mg/dL
same,"LS mean change in insulin secretion rate, comparison between dose groups","[2]; 4 mg vs 8 mg groups, p=0.0067",0.01 μIU/mL per mg/dL
same,"LS mean change in insulin, comparison between dose groups","[2]; 4 mg vs 8 mg groups, p=0.0251",0.09 μIU/mL per mg/dL
same,"LS mean change in C peptide, comparison between dose groups","[2]; 4 mg vs 16 mg groups, p<0.0001",0.03 ng/mL per mg/dL
same,"LS mean change in insulin secretion rate, comparison between dose groups","[2]; 4 mg vs 16 mg groups, p<0.0001",0.04 μIU/mL per mg/dL
same,"LS mean change in insulin, comparison between dose groups","[2]; 4 mg vs 16 mg groups, p<0.0001",0.17 μIU/mL per mg/dL
same,C-peptide level in comparison to placebo,[2]; [3],"dose dependent, dose proportional, increase"
same,insulin secretion rate (ISR) in comparison to placebo,[2]; [3],"dose dependent, dose proportional, increase"
same,"LS mean change in insulin secretion rate at each glucose infusion rate, placebo vs treatment",[2]; 4 mg,0.03 μIU/mL
same,"LS mean change in C peptide at each glucose infusion rate, placebo vs treatment","[2]; 4 mg, p<0.0001",0.02 ng/mL per mg/dL
same,"LS mean change in insulin at each glucose infusion rate, placebo vs treatment","[2]; 4 mg, p<0.0001",0.27 μIU/mL per mg/dL
same,"LS mean change in C peptide, comparison between dose groups","[2]; 8 mg vs 16 mg groups, p<0.0001",0.02 ng/mL per mg/dL
same,"LS mean change in insulin secretion rate, comparison between dose groups","[2]; 8 mg vs 16 mg groups, p<0.0001",0.03 μIU/mL per mg/dL
same,"LS mean change in insulin, comparison between dose groups","[2]; 8 mg vs 16 mg groups, p=0.0316",0.08 μIU/mL per mg/dL
same,"LS mean change in insulin secretion rate at each glucose infusion rate, placebo vs treatment",[2]; 8 mg,0.04 μIU/mL
same,"LS mean change in C peptide at each glucose infusion rate, placebo vs treatment","[2]; 8 mg, p<0.0001",0.03 ng/mL per mg/dL
same,"LS mean change in insulin at each glucose infusion rate, placebo vs treatment","[2]; 8 mg, p<0.0001",0.35 μIU/mL per mg/dL
same,increase in insulin secretion rate,"[2]; 16 mg (maximum dose), vs placebo, p=0.001",approximately 44%
same,change in glucose levels between the 8 mg/kg/min and 12 mg/kg/min infusion rates,[2]; 16 mg and 8 mg groups,no increases in glucose levels
same,"LS mean change in insulin secretion rate at each glucose infusion rate, placebo vs treatment",[2]; 16 mg,0.07 μIU/mL
same,"LS mean change in C peptide at each glucose infusion rate, placebo vs treatment","[2]; 16 mg, p<0.0001",0.05 ng/mL per mg/dL
same,"LS mean change in insulin at each glucose infusion rate, placebo vs treatment","[2]; 16 mg, p<0.0001",0.43 μIU/mL per mg/dL
same,glucose levels compared to placebo group,"[2]; all dose groups, all glucose infusion rates",lower glucose levels than the placebo group
same,Cmax of plasma acetaminophen,gastric emptying; [4],trend toward lower Cmax at a higher dose
same,Tmax of plasma acetaminophen compared to placebo,gastric emptying; [4],not significantly different from placebo
same,total acetaminophen absorbed (AUC0-4 hr) compared to placebo,gastric emptying; [4],not significantly different from placebo
same,delay in the absorption of acetaminophen,"gastric emptying; 4 mg, 8 mg, 16 mg, 72 hours after dosing, 1000 mg acetaminophen",not associated with a significant delay
same,effect on gastric emptying,gastric emptying; doses that increase insulin secretion in response to a glucose infusion,does not delay gastric emptying
